Where two headings read alike, the source gives them in different places. Where a SMILES comes first, the peptide text is derived from it.
Experiments:
[1] = target: HLA-A*2402 (Homo sapiens, UniProt P04439, D101N/D140Y/D185E/E176V/E190D/F33S/G103R/G107R/I119L/I121M/I306V/K335N/L105A/L180Q/L300P/N151K/N90K/Q86E/Q94H/R106L/R138H/R89G/T104I/T345S/V100E/W191G/Y123F); assay: In vitro class I HLA binding assay (fluorescence polarization competition); details: allele A*2402
How it was run: (§1)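 Cell-free competition assay: HLA heat-treated 53°C for 15 min to strip endogenous peptides, then mixed with fluorescent high-affinity control peptide and test peptides for 72 h to equilibrium. Displacement read by fluorescence polarization as percent inhibition; IC50 derived from a concentration range.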

[2] = target: HLA-A*0301 (Homo sapiens, UniProt P04439); assay: biochemical; assay type: binding; details: allele A*0301; fluorescence polarization competition; read-out: IC50 (nM), in vitro HLA binding affinity
How it was run: as §1

[3] = target: HLA-A*0101 (Homo sapiens, UniProt P04439, A114D/A174V/A182V/D101N/D185E/E176A/E190D/L180R/Q94H/R68K/S129P/T187R/V100A/V91M/W191G); assay: biochemical; assay type: binding; details: allele A*0101; fluorescence polarization competition; read-out: IC50 (nM), in vitro HLA binding affinity
How it was run: as §1

[4] = fluorescence polarization competition, read-out: IC50 (nM), in vitro HLA binding affinity

Row | SMILES | IC50 [1, 4] | other results
1 | N=C(N)NCCC[C@H](NC(=O)CNC(=O)[C@H](Cc1ccccc1)NC(=O)[C@@H](N)CC(N)=O)C(=O)NCC(=O)N[C@@H](CCC(N)=O)C(=O)N[C@@H](CC(N)=O)C(=O)N[C@@H](Cc1ccc(O)cc1)C(=O)N[C@@H](Cc1c[nH]c2ccccc12)C(=O)O [AMA1_020] (H-NFGRGQNYW-OH) | 229 nM | 
2 | CC(C)C[C@H](NC(=O)[C@@H]1CCCN1C(=O)[C@H](Cc1ccc(O)cc1)NC(=O)[C@@H](N)CCC(=O)O)C(=O)N[C@@H](Cc1c[nH]cn1)C(=O)N[C@@H](CCC(N)=O)C(=O)N[C@@H](CCC(=O)O)C(=O)N[C@@H](Cc1c[nH]cn1)C(=O)N[C@H](C(=O)N[C@@H](Cc1ccc(O)cc1)C(=O)O)[C@@H](C)O [AMA1_052] (H-EYPLHQEHTY-OH) | 999 nM | 
3 | CSCC[C@H](NC(=O)[C@H](Cc1ccc(O)cc1)NC(=O)[C@@H](N)CC(N)=O)C(=O)NCC(=O)N[C@@H](CC(N)=O)C(=O)N1CCC[C@H]1C(=O)N[C@@H](Cc1c[nH]c2ccccc12)C(=O)N[C@H](C(=O)N[C@@H](CCC(=O)O)C(=O)O)[C@@H](C)O [AMA1_104] (H-NYMGNPWTE-OH) | 37900 nM | 
4 | CC(C)C[C@H](NC(=O)[C@H](Cc1ccc(O)cc1)NC(=O)[C@@H](N)CCC(N)=O)C(=O)N[C@@H](CCCCN)C(=O)N[C@@H](CC(=O)O)C(=O)NCC(=O)NCC(=O)N[C@@H](Cc1ccccc1)C(=O)N[C@@H](C)C(=O)N[C@@H](Cc1ccccc1)C(=O)O [AMA1_174] (H-QYLKDGGFAF-OH) | 41.9 nM | 
5 | CC[C@H](C)[C@H](NC(=O)[C@H](CC(=O)O)NC(=O)[C@@H](N)CCC(=O)O)C(=O)N1CCC[C@H]1C(=O)N[C@@H](Cc1c[nH]cn1)C(=O)N[C@H](C(=O)N[C@@H](CC(N)=O)C(=O)N[C@@H](CCC(=O)O)C(=O)N[C@@H](Cc1ccccc1)C(=O)O)C(C)C [AMA1_321] (H-EDIPHVNEF-OH) | 83000 nM | 
6 | CC[C@H](C)[C@H](NC(=O)[C@H](CC(=O)O)NC(=O)[C@H](C)NC(=O)[C@H](Cc1ccc(O)cc1)NC(=O)[C@H](CCC(=O)O)NC(=O)[C@H](CC(=O)O)NC(=O)[C@H](CCCCN)NC(=O)[C@H](Cc1ccc(O)cc1)NC(=O)[C@@H](N)CCC(=O)O)C(=O)O [AMA1_527] (H-EYKDEYADI-OH) | 2100 nM | 
7 | CC[C@H](C)[C@H](NC(=O)[C@@H](N)CCSC)C(=O)N[C@H](C(=O)N1CCC[C@H]1C(=O)N[C@@H](Cc1ccccc1)C(=O)N[C@@H](Cc1c[nH]cn1)C(=O)N[C@@H](CCCCN)C(=O)N[C@@H](CCCCN)C(=O)N[C@@H](Cc1ccccc1)C(=O)O)[C@@H](C)CC [CYRPA_001] (H-MIIPFHKKF-OH) | 295 nM | 
8 | CC[C@H](C)[C@H](NC(=O)[C@H](Cc1ccccc1)NC(=O)[C@H](CCCCN)NC(=O)[C@H](CCCCN)NC(=O)[C@H](Cc1c[nH]cn1)NC(=O)[C@H](Cc1ccccc1)NC(=O)[C@@H]1CCCN1)C(=O)N[C@@H](CO)C(=O)N[C@@H](Cc1ccccc1)C(=O)N[C@@H](Cc1ccccc1)C(=O)O [CYRPA_004] (H-PFHKKFISFF-OH) | 35.6 nM | 
9 | CC[C@H](C)[C@H](N)C(=O)N[C@@H](Cc1ccc(O)cc1)C(=O)N[C@@H](CCCCN)C(=O)N[C@@H](CCCNC(=N)N)C(=O)N[C@@H](CCC(=O)O)C(=O)N[C@@H](CC(C)C)C(=O)N[C@@H](Cc1ccc(O)cc1)C(=O)N[C@@H](CC(N)=O)C(=O)N[C@H](C(=O)O)[C@@H](C)CC [CYRPA_055] (H-IYKRELYNI-OH) | 86.8 nM | 
10 | CC(C)C[C@H](NC(=O)[C@H](CCCCN)NC(=O)[C@H](Cc1ccc(O)cc1)NC(=O)[C@@H](N)CC(N)=O)C(=O)NCC(=O)N[C@H](C(=O)N[C@@H](CCC(N)=O)C(=O)N[C@@H](Cc1ccc(O)cc1)C(=O)N[C@@H](Cc1ccccc1)C(=O)N[C@@H](Cc1ccccc1)C(=O)O)C(C)C [CYRPA_218] (H-NYKLGVQYFF-OH) | 26300 nM | 
11 | CC[C@H](C)[C@H](NC(=O)[C@H](Cc1ccc(O)cc1)NC(=O)[C@H](CCC(=O)O)NC(=O)[C@H](CC(=O)O)NC(=O)[C@H](CC(N)=O)NC(=O)[C@H](CC(C)C)NC(=O)[C@@H](N)[C@@H](C)O)C(=O)N[C@H](C(=O)N[C@@H](CO)C(=O)N[C@@H](Cc1ccc(O)cc1)C(=O)O)C(C)C [CYRPA_285] (H-TLNDEYIVSY-OH) |  | IC50 [2]: 304000 nM; IC50 [3]: 213000 nM
12 | CC[C@H](C)[C@H](N)C(=O)N[C@@H](Cc1ccccc1)C(=O)N[C@@H](Cc1ccccc1)C(=O)N[C@@H](CC(N)=O)C(=O)N[C@@H](CC(N)=O)C(=O)N[C@@H](CCC(=O)O)C(=O)N[C@@H](CC(N)=O)C(=O)N[C@@H](CO)C(=O)N[C@H](C(=O)O)[C@@H](C)CC [CYRPA_305] (H-IFFNNENSI-OH) | 56.9 nM | 
13 | CC[C@H](C)[C@H](NC(=O)[C@H](CCCCN)NC(=O)[C@H](CC(N)=O)NC(=O)[C@H](CCC(=O)O)NC(=O)[C@H](C)NC(=O)[C@H](CCCCN)NC(=O)[C@@H](NC(=O)[C@H](CO)NC(=O)[C@H](Cc1ccc(O)cc1)NC(=O)CN)[C@@H](C)O)C(=O)O [EBA175_0255] (H-GYSTKAENKI-OH) |  | IC50 ([1]; cell-free competition, fluorescence polarization at 72 hours, Non-binder = no dose-dependent inhibition, read-out: IC50): 1840 nM

— publication PMC8294059, “Identification and Immune Assessment of T Cell Epitopes in Five Plasmodium falciparum Blood Stage Antigens to Facilitate Vaccine Candidate Selection and Optimization” (Frontiers in Immunology, 2021)
